Assay results as given in patent US20240140986A1, “SYNTHETIC URSOLIC ACID DERIVATIVES AND METHODS OF USE THEREOF” (REATA PHARMACEUTICALS, INC., priority 2021, published 2024).
Like-named read-outs stand apart in the source and are kept apart here.

Tests used:
[1] = tested on: Nrf2 / ARE-dependent luciferase in AREc32 reporter cell line; assay: AREc32 luciferase reporter activation (Nrf2 induction); format: cell-based, human; conditions: for EC (2-fold): Homo sapiens, Arec32; for Relative Avg AREc32 EC2X Relative to RTA402 (fold): ratio to RTA402
Method in brief: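 EC2X is the concentration raising luminescence 2-fold above DMSO-treated cells, from a nonlinear-regression dose–response fit. Compounds (0.03–1000 nM) were applied for nineteen hours, starting one day after seeding 20,000 reporter cells per well. Luciferase was read with One-Glo reagent.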

[2] = tested on: IFNγ-induced NO production in RAW 264.7 cells; assay: Nitric Oxide Suppression Assay (IFNγ-induced NO, Griess nitrite readout); format: cell-based, mouse; conditions: for IC50: Mus musculus, read-out: Avg NO IC50 (nM) (Mean ± SD); for Avg NO IC50 Relative to RTA402 (fold): Table 2, ratio to RTA402
Method in brief: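 Nitrite, a surrogate for NO, was measured by Griess reagent (525 nm) and quantified from standards by linear regression, expressed as percent of DMSO plus IFNγ control to give IC50. RAW 264.7 cells had 2 h compound pretreatment, then 24 h with 20 ng/mL IFNγ; WST-1 checked viability.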

[3] = Table 2, concentration increasing luminescence 2-fold above vehicle, 19 h treatment, read-out: Avg AREc32 EC2X (nM) (Mean ± SD)
[4] = Table 3, ursolic acid derivatives, read-out: Avg ARE EC-2X (nM) (Mean ± SD)
[5] = RAW264.7, Table 2, RAW 264.7 cells, 2 h pretreatment, 20 ng/mL interferon gamma 24 h
[6] = RAW264.7, Table 3, ursolic acid derivatives

SMILES | EC (2-fold) [1, 3] | EC (2-fold) [1, 4] | Relative Avg AREc32 EC2X Relative to RTA402 (fold) ([1]; Table 2) | IC50 [2, 5] | IC50 [2, 6] | Avg NO IC50 Relative to RTA402 (fold) [2]
CNC(=O)NC[C@]12CC[C@@H](C)[C@H](C)[C@H]1[C@H]1C(=O)C=C3[C@@]4(C)C=C(C#N)C(=O)C(C)(C)[C@@H]4CC[C@@]3(C)[C@]1(C)CC2 [Compound T26] | 2.23 ± 0.29 nM | 2.23 ± 0.29 nM | 0.177 ± 0.020 fold | 5.12 ± 2.22 nM | 5.12 ± 2.22 nM | 1.71 ± 0.70 fold
C[C@@H]1[C@H]2[C@H]3C(=O)C=C4[C@@]5(C)C=C(C#N)C(=O)C(C)(C)[C@@H]5CC[C@@]4(C)[C@]3(C)CC[C@@]2(CNC(=O)N2CCC2)CC[C@H]1C [Compound T27] | 1.62 ± 0.22 nM | – | 0.144 ± 0.008 fold | 4.03 ± 1.66 nM | – | 1.15 ± 0.40 fold
C[C@@H]1[C@H]2[C@H]3C(=O)C=C4[C@@]5(C)C=C(C#N)C(=O)C(C)(C)[C@@H]5CC[C@@]4(C)[C@]3(C)CC[C@@]2(CNC(=O)C(F)F)CC[C@H]1C [Compound T28] | 4.33 ± 1.62 nM | – | 0.331 ± 0.101 fold | 3.64 ± 1.69 nM | – | 1.15 ± 0.32 fold
C[C@@H]1[C@H]2[C@H]3C(=O)C=C4[C@@]5(C)C=C(C#N)C(=O)C(C)(C)[C@@H]5CC[C@@]4(C)[C@]3(C)CC[C@@]2(CNC(=O)C(C)(F)F)CC[C@H]1C [Compound T29] | 3.88 ± 1.19 nM | – | 0.317 ± 0.086 fold | 4.21 ± 1.75 nM | – | 1.47 ± 0.32 fold
COC(=O)NC[C@]12CC[C@@H](C)[C@H](C)[C@H]1[C@H]1C(=O)C=C3[C@@]4(C)C=C(C#N)C(=O)C(C)(C)[C@@H]4CC[C@@]3(C)[C@]1(C)CC2 [Compound T30] | 3.29 ± 0.61 nM | – | 0.27 ± 0.06 fold | 5.12 ± 1.21 nM | – | 1.33 ± 0.30 fold
C[C@@H]1[C@H]2[C@H]3C(=O)C=C4[C@@]5(C)C=C(C#N)C(=O)C(C)(C)[C@@H]5CC[C@@]4(C)[C@]3(C)CC[C@@]2(CNS(C)(=O)=O)CC[C@H]1C [Compound T31] | 4.36 ± 0.81 nM | – | 0.373 ± 0.071 fold | 7.7 ± 3.1 nM | – | 2.25 ± 0.49 fold
CCS(=O)(=O)NC[C@]12CC[C@@H](C)[C@H](C)[C@H]1[C@H]1C(=O)C=C3[C@@]4(C)C=C(C#N)C(=O)C(C)(C)[C@@H]4CC[C@@]3(C)[C@]1(C)CC2 [Compound T32] | 4.2 ± 1.3 nM | – | 0.399 ± 0.111 fold | 5.34 ± 1.15 nM | – | 2.52 ± 1.11 fold
C[C@@H]1[C@H]2[C@H]3C(=O)C=C4[C@@]5(C)C=C(C#N)C(=O)C(C)(C)[C@@H]5CC[C@@]4(C)[C@]3(C)CC[C@@]2(CNS(=O)(=O)C2CC2)CC[C@H]1C [Compound T33] | 6.93 ± 1 nM | – | 0.621 ± 0.137 fold | 6.84 ± 1.59 nM | – | 2.32 ± 0.42 fold
CC(=O)N(C)C[C@]12CC[C@@H](C)[C@H](C)[C@H]1[C@H]1C(=O)C=C3[C@@]4(C)C=C(C#N)C(=O)C(C)(C)[C@@H]4CC[C@@]3(C)[C@]1(C)CC2 [Compound T35] | 5.05 ± 1.1 nM | 5.05 ± 1.1 nM | 0.442 ± 0.136 fold | 5.57 ± 2 nM | 5.57 ± 2 nM | 1.66 ± 0.32 fold
CNC(=O)N(C)C[C@]12CC[C@@H](C)[C@H](C)[C@H]1[C@H]1C(=O)C=C3[C@@]4(C)C=C(C#N)C(=O)C(C)(C)[C@@H]4CC[C@@]3(C)[C@]1(C)CC2 [Compound T36] | 5.21 ± 1.17 nM | 5.21 ± 1.17 nM | 0.441 ± 0.075 fold | 5.08 ± 1.51 nM | 5.08 ± 1.51 nM | 1.25 ± 0.47 fold
[2H]C([2H])([2H])C(=O)N(C)C[C@]12CC[C@@H](C)[C@H](C)[C@H]1[C@H]1C(=O)C=C3[C@@]4(C)C=C(C#N)C(=O)C(C)(C)[C@@H]4CC[C@@]3(C)[C@]1(C)CC2 [Compound T37] | 6.04 ± 2.15 nM | – | 0.486 ± 0.047 fold | 5.76 ± 1.38 nM | – | 2.08 ± 0.31 fold
